Data reported in patent publication US7932262B2 (Novartis AG, priority 2006, dated 2011).
Read-outs that look alike come from different tables or passages of the source.

Assays:
[1] = system: PC-3 cells; assay: Cell Proliferation Assay (Cell Titer Glo), PC-3 cell line; type: cell-based; conditions: Homo sapiens
Summary of the method: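 PC-3 cells, 1000 cells/well, left to adhere 3-5 h, then exposed for 3 days at 37° C to compounds as 1:3 serial dilutions from 500× DMSO stocks diluted in growth medium. Medium then replaced with fresh medium and viability read by Cell Titer Glo luminescence.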

[2] = target: T1, PDK1 kinase (Homo sapiens, UniProt O15530); assay: PDK1 Kinase Alpha Screen Assay; type: biochemical
T1 sequence (O15530 1-556): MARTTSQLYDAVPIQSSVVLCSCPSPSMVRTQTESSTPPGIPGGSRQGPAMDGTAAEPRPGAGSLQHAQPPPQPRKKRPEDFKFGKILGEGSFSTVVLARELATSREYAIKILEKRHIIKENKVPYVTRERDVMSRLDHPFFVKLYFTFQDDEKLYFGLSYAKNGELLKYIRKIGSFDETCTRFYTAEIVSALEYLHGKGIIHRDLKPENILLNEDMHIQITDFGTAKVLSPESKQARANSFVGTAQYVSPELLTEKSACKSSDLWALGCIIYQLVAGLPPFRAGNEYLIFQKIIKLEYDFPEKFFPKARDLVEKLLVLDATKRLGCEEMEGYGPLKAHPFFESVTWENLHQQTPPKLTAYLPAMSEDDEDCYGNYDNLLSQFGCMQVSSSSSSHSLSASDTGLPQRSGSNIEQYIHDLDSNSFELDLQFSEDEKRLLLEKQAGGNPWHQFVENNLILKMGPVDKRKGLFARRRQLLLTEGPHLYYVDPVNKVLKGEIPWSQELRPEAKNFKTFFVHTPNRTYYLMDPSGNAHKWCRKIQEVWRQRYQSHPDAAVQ
Summary of the method: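 Test compounds were incubated with PDK1 kinase, 10 uM ATP and 50 nM biotinylated peptide substrate for 3-18 hours at pH 7.5 with 2.5% DMSO. Peptide phosphorylation was then detected by AlphaScreen proximity luminescence using a phospho-(Ser/Thr) PKA substrate antibody.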

[3] = PC-3, Cell Proliferation Assay, PC3, read-out: CPEC50 PC3
[4] = PDK1 Kinase Alpha Screen Assay, read-out: PDK1 IC50
[5] = PC-3, 72 h, PC-3 cells, 3 days incubation, read-out: CP EC50 PC3
[6] = PC-3, PC3 cells, read-out: CPEC50 PC3
[7] = head of the second part of Table 4: BV11261, read-out: PDK1 BV11261
[8] = PC-3, Cell Proliferation Assay, PC3 cells, read-out: CPEC50 PC3

CC(C)N1CCC(Oc2ccc3cnc(Nc4cccc(F)c4)nc3c2)CC1 [Compound 573, N-(3-fluorophenyl)-7-(1-isopropylpiperidin-4-yloxy)quinazolin-2-amine]
EC50 [1, 3]: 5 to 10 µM
IC50 [2, 4]: < 5 µM

N#Cc1ccc(Nc2ncc3cccc(OC4CCNCC4)c3n2)cc1 [Compound 489, 4-(8-(piperidin-4-yloxy)quinazolin-2-ylamino)benzonitrile]
EC50 [1, 3]: < 5 µM
IC50 [2, 4]: < 5 µM

COc1ccc(Cl)c2cnc(Nc3cc(CN(C)C)cc(NC(C)=O)c3)nc12 [Compound 691]
EC50 [1, 3]: 5 to 10 µM
IC50 [2, 4]: < 5 µM

CC(C)N1CCC(Oc2cccc3cnc(Nc4ccc(CC(N)=O)cc4)nc23)CC1 [Compound 74, 2-{4-[8-(1-Isopropyl-piperidin-4-yloxy)-quinazolin-2-ylamino]-phenyl}-acetamide]
EC50 [1, 5]: < 5 µM
IC50 ([2]; read-out: PDK1 IC50): < 5 µM

CC(=O)Nc1cc(NC(C)=O)cc(Nc2ncc3c(Cl)ccc(OC4CCNCC4)c3n2)c1 [Compound 382, N,N′-(5-(5-chloro-8-(piperidin-4-yloxy)quinazolin-2-ylamino)-1,3-phenylene)diacetamide]
EC50 [1, 3]: 5 to 10 µM
IC50 [2, 4]: < 5 µM

O=S(=O)(c1ccc(Nc2ncc3c(Cl)ccc(OC4CCNCC4)c3n2)cc1)N1CCOCC1 [Compound 606, 5-chloro-N-(4-(morpholinosulfonyl)phenyl)-8-(piperidin-4-yloxy)quinazolin-2-amine]
EC50 [1, 3]: < 5 µM
IC50 [2, 4]: < 5 µM

CN1CCN(c2ccc(-c3cccc4cnc(Nc5ccc(N6CCOCC6)c(Cl)c5)nc34)cn2)CC1 [Compound 466, N-(3-chloro-4-morpholinophenyl)-8-(6-(4-methylpiperazin-1-yl)pyridin-3-yl)quinazolin-2-amine]
EC50 [1, 3]: < 5 µM
IC50 [2, 4]: < 5 µM

CN1CCC(Nc2ccc3cnc(Nc4ccc(C(=O)N5CCOCC5)cc4)nc3c2)CC1 [Compound 345, (4-(7-(1-methylpiperidin-4-ylamino)quinazolin-2-ylamino)phenyl)(morpholino)methanone]
EC50 [1, 3]: < 5 µM
IC50 [2, 4]: < 5 µM

Fc1ccc(Nc2ncc3ccc(OC4CCNCC4)cc3n2)cc1-c1cnoc1 [Compound 592, N-(4-fluoro-3-(isoxazol-4-yl)phenyl)-7-(piperidin-4-yloxy)quinazolin-2-amine]
EC50 [1, 3]: 5 to 10 µM
IC50 [2, 4]: < 5 µM

CN1CCN(c2ccc(-c3cccc4cnc(Nc5ccc(C(F)(F)F)nc5)nc34)cn2)CC1 [Compound 436, 8-(6-(4-methylpiperazin-1-yl)pyridin-3-yl)-N-(6-(trifluoromethyl)pyridine-3-yl)quinazolin-2-amine]
EC50 [1, 3]: < 5 µM
IC50 [2, 4]: < 5 µM

O=S(=O)(c1ccc(Nc2ncc3cccc(-c4ccc(NCCN5CCCC5)nc4)c3n2)cc1)N1CCOCC1 [Compound 425, N-(4-(morpholinosulfonyl)phenyl)-8-(6-(2-(pyrrolidin-1-yl)ethylamino)pyridine-3-yl)quinazolin-2-amine]
EC50 [1, 3]: < 5 µM
IC50 [2, 4]: < 5 µM

CCN1CCC(Oc2ccc3cnc(Nc4cc(OC)cc(OC)c4)nc3c2)CC1 [Compound 56, (3,5-Dimethoxy-phenyl)-[7-(1-ethyl-piperidin-4-yloxy)-quinazolin-2-yl]-amine]
EC50 [1, 5]: < 5 µM
IC50 ([2]; read-out: PDK1 IC50): < 5 µM

CC(C)N1CCC(Oc2cccc3cnc(Nc4ccc(F)cc4)nc23)CC1 [Compound 83, (4-Fluoro-phenyl)-[8-(1-isopropyl-piperidin-4-yloxy)-quinazolin-2-yl]-amine]
EC50 [1, 5]: 5 to 10 µM
IC50 ([2]; read-out: PDK1 IC50): < 5 µM

O=C(NC1CC1)c1ccc(Nc2ncc3c(Cl)ccc(OC4CNC4)c3n2)cc1 [Compound 613, 4-(8-(azetidin-3-yloxy)-5-chloroquinazolin-2-ylamino)-N-cyclopropylbenzamide]
EC50 [1, 3]: < 5 µM
IC50 [2, 4]: < 5 µM

COCCNC(=O)c1ccc(Nc2ncc3cccc(OC4CCNCC4)c3n2)cc1F [Compound 445, 2-fluoro-N-(2-methoxyethyl)-4-(8-(piperidin-4-yloxy)quinazolin-2-ylamino)benzamide]
EC50 [1, 3]: < 5 µM
IC50 [2, 4]: < 5 µM

Cn1cc(-c2cc(Cl)cc3cnc(Nc4ccc(S(N)(=O)=O)cc4)nc23)cn1 [Compound 926, 4-(6-chloro-8-(1-methyl-1H-pyrazol-4-yl)quinazolin-2-ylamino)benzenesulfonamide]
EC50 [1, 6]: < 5 µM
IC50 ([2]; read-out: PDK1 IC50): < 5 µM

C#Cc1cc(OC2CCN(C(C)C)CC2)c2nc(Nc3ccc(N4CCOCC4)cc3)ncc2c1 [Compound 698, 6-ethynyl-8-(1-isopropylpiperidin-4-yloxy)-N-(4-morpholinophenyl)quinazolin-2-amine]
EC50 [1, 3]: < 5 µM
IC50 [2, 4]: < 5 µM

CC(C)N1CCC(Oc2cccc3cnc(Nc4ccccc4)nc23)CC1 [Compound 534, 8-(1-isopropylpiperidin-4-yloxy)-N-phenylquinazolin-2-amine]
EC50 [1, 3]: < 5 µM
IC50 [2, 4]: < 5 µM

CC(C)N1CCC(Oc2cc(-c3nccs3)cc3cnc(Nc4ccc(N5CCOCC5)cc4)nc23)CC1 [Compound 553, 8-(1-isopropylpiperidin-4-yloxy)-N-(4-morpholinophenyl)-6-(thiazol-2-yl)quinazolin-2-amine]
EC50 [1, 3]: < 5 µM
IC50 [2, 4]: < 5 µM

C#Cc1cc(OC2CCCNCC2)c2nc(Nc3ccc(N4CCOCC4)cc3)ncc2c1 (stereo not drawn) [Compound 1031, 8-(azepan-4-yloxy)-6-ethynyl-N-(4-morpholinophenyl)quinazolin-2-amine]
EC50 [1, 6]: < 5 µM
IC50 [2, 7]: < 5 µM

O=C(c1ccc(Nc2ncc3c(Cl)ccc(OC4CCNCC4)c3n2)cc1)N1CCOCC1 [Compound 595, (4-(5-chloro-8-(piperidin-4-yloxy)quinazolin-2-ylamino)phenyl)(morpholino)methanone]
EC50 [1, 3]: 5 to 10 µM
IC50 [2, 4]: < 5 µM

O=C(c1ccc(Nc2ncc3ccc(-c4cn[nH]c4)cc3n2)cc1)N1CCOCC1 [Compound 344, (4-(7-(1H-pyrazol-4-yl)quinazolin-2-ylamino)phenyl)(morpholino)methanone]
EC50 [1, 3]: < 5 µM
IC50 [2, 4]: < 5 µM

Nc1ncc2cccc(O)c2n1 [Compound 524, 2-aminoquinazolin-8-ol]
EC50 [1, 3]: < 5 µM
IC50 [2, 4]: 10 to 25 µM

O=c1[nH]c2ccc(Nc3ncc4ccc(OC5CCNCC5)cc4n3)cc2[nH]1 [Compound 330, 5-(7-(piperidin-4-yloxy)-quinazolin-2-ylamino]-1H-benzo[d]imidazol-2(3H)-one]
EC50 [1, 3]: 5 to 10 µM
IC50 [2, 4]: < 5 µM

CC(C)N1CCC(Oc2cccc3cnc(Nc4cccc(CC(N)=O)c4)nc23)CC1 [Compound 76, 2-{3-[8-(1-Isopropyl-piperidin-4-yloxy)-quinazolin-2-ylamino]-phenyl}-acetamide]
EC50 [1, 5]: < 5 µM
IC50 ([2]; read-out: PDK1 IC50): < 5 µM

COc1c(-c2cnn(C)c2)cc(Cl)c2cnc(Nc3cc(CN(C)C)cc(NC(C)=O)c3)nc12 [Compound 1037, N-(3-(5-chloro-8-methoxy-7-(1-methyl-1H-pyrazol-4-yl)quinazolin-2-ylamino)-5-((dimethylamino)methyl)phenyl)acetamide]
EC50 [1, 6]: < 5 µM
IC50 [2, 7]: < 5 µM

Cc1ccc(OC2CCNCC2)c2nc(Nc3ccc(C(=O)N4CCOCC4)cc3)ncc12 [Compound 356, (4-(5-methyl-8-(piperidin-4-yloxy)quinazolin-2-ylamino)phenyl)(morpholino)methanone]
EC50 [1, 3]: 5 to 10 µM
IC50 [2, 4]: < 5 µM

C#Cc1cc2cnc(Nc3ccc(S(N)(=O)=O)cc3)nc2cc1OC1CCN(C(C)C)CC1 [Compound 714, 4-(6-ethynyl-7-(1-isopropylpiperidin-4-yloxy)quinazolin-2-ylamino)benzenesulfonamide]
EC50 [1, 8]: < 5 µM
IC50 [2, 4]: < 5 µM

CC(C)Cn1cc(-c2ccc3cnc(Nc4ccc(S(=O)(=O)NCCN5CCOCC5)cc4)nc3c2)cn1 [Compound 710, 44-(7-(1-isobutyl-1H-pyrazol-4-yl)quinazolin-2-ylamino)-N-(2-morpholinoethyl)benzenesulfonamide]
EC50 [1, 8]: < 5 µM
IC50 [2, 4]: < 5 µM

COCCNC(=O)c1ccc(Nc2ncc3cccc(OC4CCNCC4)c3n2)cc1 [Compound 492]
EC50 [1, 3]: < 5 µM
IC50 [2, 4]: < 5 µM

CC(C)N1CCC(Oc2cc(C3CC3)cc3cnc(Nc4ccc(N5CCOCC5)cc4)nc23)CC1 [Compound 704, 6-cyclopropyl-8-(1-isopropylpiperidin-4-yloxy)-N-(4-morpholinophenyl)quinazolin-2-amine]
EC50 [1, 3]: < 5 µM
IC50 [2, 4]: < 5 µM

Nc1ncc(-c2cccc3cnc(Nc4ccc(S(N)(=O)=O)cc4)nc23)cc1C(F)(F)F [Compound 929, 4-(8-(6-amino-5-(trifluoromethyl)pyridin-3-yl)quinazolin-2-ylamino)benzenesulfonamide]
EC50 [1, 6]: < 5 µM
IC50 ([2]; read-out: PDK1 IC50): < 5 µM

Cc1ccc(Nc2ncc3ccc(OC4CCNCC4)cc3n2)cc1NS(C)(=O)=O [Compound 325]
EC50 [1, 3]: 5 to 10 µM
IC50 [2, 4]: < 5 µM
